Source: ChEMBL document CHEMBL3045802, “Synthesis and in vitro antitumor activity of new quinoline, pyrimido[4,5-b]quinoline, [1,2,3]triazino[4,5-b]quinoline, and [1,2,4]triazolo[2,3:3,4]pyrimido[6,5-b]quinoline analogs” (2013)

Legend:
Assay type in all cases: functional
[1] = system: SK-MEL-28; assay: Cytotoxicity against Homo sapiens (human) SK-MEL-28 cells assessed as growth inhibition at 10 uM after 48 hr by coulter counter analysis; conditions: SK-MEL-28, 48 h, read-out: GI
[2] = system: SK-MEL-2; assay: Cytotoxicity against Homo sapiens (human) SK-MEL-2 cells assessed as growth inhibition at 10 uM after 48 hr by coulter counter analysis; conditions: SK-MEL-2, 48 h, read-out: GI
[3] = system: MDA-MB-435; assay: Cytotoxicity against Homo sapiens (human) MDA-MB-435 cells assessed as growth inhibition at 10 uM after 48 hr by coulter counter analysis; conditions: MDA-MB-435, 48 h, read-out: GI
[4] = system: Malme-3M; assay: Cytotoxicity against Homo sapiens (human) MALME-3M cells assessed as growth inhibition at 10 uM after 48 hr by coulter counter analysis; conditions: read-out: GI
[5] = system: SNB-19; assay: Cytotoxicity against Homo sapiens (human) SNB19 cells assessed as growth inhibition at 10 uM after 48 hr by coulter counter analysis; conditions: SNB-19, 48 h, read-out: GI
[6] = system: SF-539; assay: Cytotoxicity against Homo sapiens (human) SF539 cells assessed as growth inhibition at 10 uM after 48 hr by coulter counter analysis; conditions: SF-539, 48 h, read-out: GI
[7] = system: OVCAR-3; assay: Cytotoxicity against Homo sapiens (human) OVCAR3 cells assessed as growth inhibition at 10 uM after 48 hr by coulter counter analysis; conditions: OVCAR-3, 48 h, read-out: GI
[8] = system: UACC-257; assay: Cytotoxicity against Homo sapiens (human) UACC257 cells assessed as growth inhibition at 10 uM after 48 hr by coulter counter analysis; conditions: UACC-257, 48 h, read-out: GI
[9] = system: SK-MEL-5; assay: Cytotoxicity against Homo sapiens (human) SK-MEL-5 cells assessed as growth inhibition at 10 uM after 48 hr by coulter counter analysis; conditions: SK-MEL-5, 48 h, read-out: GI
[10] = system: T47D; assay: Cytotoxicity against Homo sapiens (human) T47D cells assessed as growth inhibition at 10 uM after 48 hr by coulter counter analysis; conditions: read-out: GI
[11] = system: DU-145; assay: Cytotoxicity against Homo sapiens (human) DU145 cells assessed as growth inhibition at 10 uM after 48 hr by coulter counter analysis; conditions: DU-145, 48 h, read-out: GI
[12] = system: SN12C; assay: Cytotoxicity against Homo sapiens (human) SN12C cells assessed as growth inhibition at 10 uM after 48 hr by coulter counter analysis; conditions: read-out: GI
[13] = system: A498; assay: Cytotoxicity against Homo sapiens (human) A498 cells assessed as growth inhibition at 10 uM after 48 hr by coulter counter analysis; conditions: A498, 48 h, read-out: GI
[14] = Cytotoxicity against Homo sapiens (human) NCI-ADR-RES cells assessed as growth inhibition at 10 uM after 48 hr by coulter counter analysis; conditions: read-out: GI
[15] = system: OVCAR-5; assay: Cytotoxicity against Homo sapiens (human) OVCAR5 cells assessed as growth inhibition at 10 uM after 48 hr by coulter counter analysis; conditions: OVCAR-5, 48 h, read-out: GI
[16] = system: HL-60(TB); assay: Cytotoxicity against Homo sapiens (human) HL-60(TB) cells assessed as growth inhibition at 10 uM after 48 hr by coulter counter analysis; conditions: HL-60, 48 h, read-out: GI
[17] = system: CCRF-CEM; assay: Cytotoxicity against Homo sapiens (human) CCRF-CEM cells assessed as growth inhibition at 10 uM after 48 hr by coulter counter analysis; conditions: read-out: GI
[18] = system: SW-620; assay: Cytotoxicity against Homo sapiens (human) SW620 cells assessed as growth inhibition at 10 uM after 48 hr by coulter counter analysis; conditions: SW-620, 48 h, read-out: GI
[19] = system: HT-29; assay: Cytotoxicity against Homo sapiens (human) HT-29 cells assessed as growth inhibition at 10 uM after 48 hr by coulter counter analysis; conditions: HT-29, 48 h, read-out: GI
[20] = system: HCT-116; assay: Cytotoxicity against Homo sapiens (human) HCT116 cells assessed as growth inhibition at 10 uM after 48 hr by coulter counter analysis; conditions: HCT-116, 48 h, read-out: GI
[21] = system: HCC 2998; assay: Cytotoxicity against Homo sapiens (human) HCC2998 cells assessed as growth inhibition at 10 uM after 48 hr by coulter counter analysis; conditions: HCC 2998, 48 h, read-out: GI
[22] = system: COLO 205; assay: Cytotoxicity against Homo sapiens (human) COLO205 cells assessed as growth inhibition at 10 uM after 48 hr by coulter counter analysis; conditions: COLO 205, 48 h, read-out: GI
[23] = system: NCI-H522; assay: Cytotoxicity against Homo sapiens (human) NCI-H522 cells assessed as growth inhibition at 10 uM after 48 hr by coulter counter analysis; conditions: NCI-H522, 48 h, read-out: GI
[24] = system: NCI-H460; assay: Cytotoxicity against Homo sapiens (human) NCI-H460 cells assessed as growth inhibition at 10 uM after 48 hr by coulter counter analysis; conditions: NCI-H460, 48 h, read-out: GI
[25] = system: NCI-H23; assay: Cytotoxicity against Homo sapiens (human) NCI-H23 cells assessed as growth inhibition at 10 uM after 48 hr by coulter counter analysis; conditions: NCI-H23, 48 h, read-out: GI
[26] = system: NCI-H226; assay: Cytotoxicity against Homo sapiens (human) NCI-H226 cells assessed as growth inhibition at 10 uM after 48 hr by coulter counter analysis; conditions: NCI-H226, 48 h, read-out: GI
[27] = system: HOP-92; assay: Cytotoxicity against Homo sapiens (human) HOP92 cells assessed as growth inhibition at 10 uM after 48 hr by coulter counter analysis; conditions: HOP-92, 48 h, read-out: GI
[28] = system: EKVX; assay: Cytotoxicity against Homo sapiens (human) EKVX cells assessed as growth inhibition at 10 uM after 48 hr by coulter counter analysis; conditions: read-out: GI
[29] = system: HOP-62; assay: Cytotoxicity against Homo sapiens (human) HOP62 cells assessed as growth inhibition at 10 uM after 48 hr by coulter counter analysis; conditions: HOP-62, 48 h, read-out: GI
[30] = system: A549; assay: Cytotoxicity against Homo sapiens (human) A549 cells assessed as growth inhibition at 10 uM after 48 hr by coulter counter analysis; conditions: A549, 48 h, read-out: GI
[31] = system: SR; assay: Cytotoxicity against Homo sapiens (human) SR cells assessed as growth inhibition at 10 uM after 48 hr by coulter counter analysis; conditions: read-out: GI
[32] = system: RPMI-8226; assay: Cytotoxicity against Homo sapiens (human) RPMI8226 cells assessed as growth inhibition at 10 uM after 48 hr by coulter counter analysis; conditions: RPMI-8226, 48 h, read-out: GI
[33] = system: K562; assay: Cytotoxicity against Homo sapiens (human) K562 cells assessed as growth inhibition at 10 uM after 48 hr by coulter counter analysis; conditions: K562, 48 h, read-out: GI
[34] = system: BT-549; assay: Cytotoxicity against Homo sapiens (human) BT549 cells assessed as growth inhibition at 10 uM after 48 hr by coulter counter analysis; conditions: BT-549, 48 h, read-out: GI

Row | SMILES | inhibition of growth at 10 µM [1] | inhibition of growth at 10 µM [2] | inhibition of growth at 10 µM [3] | inhibition of growth at 10 µM [4] | inhibition of growth at 10 µM [5] | inhibition of growth at 10 µM [6] | inhibition of growth at 10 µM [7] | inhibition of growth at 10 µM [8] | inhibition of growth at 10 µM [9] | inhibition of growth at 10 µM [10] | inhibition of growth at 10 µM [11] | inhibition of growth at 10 µM [12] | inhibition of growth at 10 µM [13] | inhibition of growth at 10 µM [14] | inhibition of growth at 10 µM [15] | inhibition of growth at 10 µM [16] | inhibition of growth at 10 µM [17] | inhibition of growth at 10 µM [18] | inhibition of growth at 10 µM [19] | inhibition of growth at 10 µM [20] | also measured
1 | COc1ccc(-c2nc3c(c(=O)[nH]2)C(c2ccc(OC)c(OC)c2)C2=C(CCCC2)N3)cc1OC (stereo unspecified) | < 10% | < 10% | < 10% | < 10% | < 10% | 14.5% | < 10% | < 10% | 18.6% | 28.3% | < 10% | 15% | < 10% | < 10% | < 10% | < 10% | 11.7% | < 10% | < 10% | < 10% | inhibition of growth at 10 µM [21]: < 10%; inhibition of growth at 10 µM [22]: 10.3%; inhibition of growth at 10 µM [23]: 25.8%; inhibition of growth at 10 µM [24]: < 10%; inhibition of growth at 10 µM [25]: < 10%; inhibition of growth at 10 µM [26]: 13.3%; inhibition of growth at 10 µM [27]: 26.3%; inhibition of growth at 10 µM [28]: < 10%; inhibition of growth at 10 µM [29]: 12.3%; inhibition of growth at 10 µM [30]: < 10%; inhibition of growth at 10 µM [31]: 21.4%; inhibition of growth at 10 µM [32]: 10.8%; inhibition of growth at 10 µM [33]: < 10%
2 | COc1ccc(C2C3=C(CCCC3)Nc3ncn4nc(-c5ccccc5)nc4c32)cc1OC (stereo unspecified) | < 10% | < 10% | < 10% | < 10% | < 10% | < 10% | < 10% | < 10% | < 10% | 26.2% | < 10% | < 10% | 53.6% | < 10% | 11.7% | < 10% | < 10% | < 10% | < 10% | < 10% | inhibition of growth at 10 µM [34]: < 10%; inhibition of growth at 10 µM [21]: < 10%; inhibition of growth at 10 µM [22]: < 10%; inhibition of growth at 10 µM [23]: 31.4%; inhibition of growth at 10 µM [24]: < 10%; inhibition of growth at 10 µM [25]: 10.7%; inhibition of growth at 10 µM [26]: 19.6%; inhibition of growth at 10 µM [27]: 36.8%; inhibition of growth at 10 µM [28]: 11%; inhibition of growth at 10 µM [29]: < 10%; inhibition of growth at 10 µM [30]: 12.3%; inhibition of growth at 10 µM [31]: < 10%; inhibition of growth at 10 µM [32]: 10.5%; inhibition of growth at 10 µM [33]: < 10%
3 | COc1ccc(C2C3=C(CCCC3)Nc3ncn4nc(-c5ccc(O)cc5)nc4c32)cc1OC (stereo unspecified) | < 10% | < 10% | < 10% | < 10% | < 10% | < 10% | < 10% | < 10% | 23.2% | 18.8% | < 10% | < 10% | < 10% | < 10% | < 10% | < 10% | < 10% | < 10% | < 10% | < 10% | inhibition of growth at 10 µM [34]: < 10%; inhibition of growth at 10 µM [21]: < 10%; inhibition of growth at 10 µM [22]: < 10%; inhibition of growth at 10 µM [23]: 16.4%; inhibition of growth at 10 µM [24]: < 10%; inhibition of growth at 10 µM [25]: < 10%; inhibition of growth at 10 µM [26]: 15.3%; inhibition of growth at 10 µM [27]: 12.2%; inhibition of growth at 10 µM [28]: < 10%; inhibition of growth at 10 µM [29]: < 10%; inhibition of growth at 10 µM [30]: < 10%; inhibition of growth at 10 µM [31]: < 10%; inhibition of growth at 10 µM [32]: < 10%; inhibition of growth at 10 µM [33]: < 10%
